This note sets out measurements from the supplement of paper PMC11061612.

SMILES strings stand for the structures.

Holding throughout (assay): combination Emax (second highest fraction inhibited in the dose matrix, 72 h); higher = more inhibition; extreme values may be limits of the assay
The subject of assay [1] is KYSE-270 (Esophageal Squamous Cell Carcinoma). The method in brief:
(§1)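 Cell lines in DMEM/F12 or RPMI with 10% FBS were plated in 1536-well plates, held 24 hours at 37°C, 5% CO2, then given two-drug dose matrices for 72 hours (DMSO typically 0.2%). Viability was read by CellTiter-Glo 2.0 luminescence and scaled as inhibition from 0 (vehicle wells) to 1 (blank wells). Combination Emax is the second-highest inhibition in the matrix; Bliss excess is observed combination effect minus expected EA + EB − EA·EB, EA and EB being single-agent effects.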

Assay [2] relates to HCC1419 (Breast Carcinoma). The method in brief:
as §1

Assay [3] has as its system NCI-H929 (Plasma Cell Myeloma). The essentials:
as §1

The subject of assay [4] is 8505C (Thyroid Gland Carcinoma). The essentials:
as §1

Assay [5] has as its system SK-GT-4 (Esophageal Adenocarcinoma). The essentials: as §1
Assay [6] has as its system NCCIT (Other Solid Carcinomas). The method in brief:
as §1

The subject of assay [7] is KMS-12-BM (Plasma Cell Myeloma). The essentials: as §1
In another assay the test system is RD (Rhabdomyosarcoma). The method in brief:
as §1

The subject of a further assay is SJSA-1 (Osteosarcoma). The method in brief: as §1
The test system of assay [8] is CHSA8926 (Chondrosarcoma). The essentials: as §1
In the next assay the test system is G-361 (Melanoma). The method in brief: as §1
Assay [9] has as its system NCI-H3122 (Lung Adenocarcinoma). The essentials: as §1
Assay [10] relates to MOG-G-CCM (Low Grade Glioma). The essentials:
as §1

The test system of the next assay is M059J (Glioblastoma). The method in brief: as §1
Assay [11] concerns NCI-H520 (Squamous Cell Lung Carcinoma). The method in brief: as §1
Assay [12] concerns JHH-4 (Hepatocellular Carcinoma). The essentials:
as §1

In assay [13] the test system is CW-2 (Colorectal Carcinoma). The essentials:
as §1

The subject of assay [14] is SU-DHL-5 (B-Cell Non-Hodgkin's Lymphoma). The essentials: as §1
Assay [15] relates to T-T (Esophageal Squamous Cell Carcinoma). The essentials:
as §1

For assay [16], the system named is KU812 (Chronic Myelogenous Leukemia). The method in brief:
as §1

Turning to `CN(CCO)CC[C@H](CSc1ccccc1)Nc1ccc(S(=O)(=O)NC(=O)c2ccc(N3CCC([C@@H](O)c4ccccc4-c4ccc(Cl)cc4)CC3)cc2)cc1S(=O)(=O)C(F)(F)F` [AZD4320] + C=CCn1c(=O)c2cnc(Nc3ccc(N4CCN(C)CC4)cc3)nc2n1-c1cccc(C(C)(C)O)n1 [AZD1775] (first compound max 1 µM, partner max 1 µM), the “combination Emax” value in [1] amounted to 0.632; in assay [2], 0.0041; in assay [3] it was 0.402; in [4], 0.187; in [5], 0.349; in assay [6], 0.878. In addition, the “combination Emax” value was 1 in assay [7]; 0.92 with RD (Rhabdomyosarcoma); 0.392 in the assay on SJSA-1 (Osteosarcoma); 0.852 in assay [8]; 0.665 in the assay on G-361 (Melanoma); 0.845 in assay [9]. Moreover, the “combination Emax” value in assay [10] stood at 0.733; with M059J (Glioblastoma), 0.783; in [11] it was 0.76; in assay [12], 0.688; in assay [13], 0.324; in [14] it was 1. For the same compound, the “combination Emax” value in assay [15] is 0.523; in assay [16] it was 0.956.

Regarding `CN(CCO)CC[C@H](CSc1ccccc1)Nc1ccc(S(=O)(=O)NC(=O)c2ccc(N3CCC([C@@H](O)c4ccccc4-c4ccc(Cl)cc4)CC3)cc2)cc1S(=O)(=O)C(F)(F)F` [AZD4320] + CCN(CCO)CCCOc1ccc2c(Nc3cc(CC(=O)Nc4cccc(F)c4)[nH]n3)ncnc2c1 [AZD2811] (first compound max 1 µM, 7x7, partner max 1 µM), the “combination Emax” value was determined as 0.113 in assay [1]; 0.0755 in [2]; 0.227 in assay [3]; 0.369 in assay [4]; 0.238 in [5]; 0.181 in assay [6]. The “combination Emax” value in assay [7] was 1; in the assay on RD (Rhabdomyosarcoma) it was 0.856; with SJSA-1 (Osteosarcoma) it was 0.335; in [8], 0.643; with G-361 (Melanoma), 0.41; in assay [9], 0.269. For the same compound, the “combination Emax” value in [10] came to 0.773; with M059J (Glioblastoma) it was 0.69; in [11] it was 0.689; in [12] it was 0.17; in assay [13], 0.12; in [14], 0.755. For the same compound, the “combination Emax” value in assay [15] was 0.282; in [16] it was 0.885.

For `CN(CCO)CC[C@H](CSc1ccccc1)Nc1ccc(S(=O)(=O)NC(=O)c2ccc(N3CCC([C@@H](O)c4ccccc4-c4ccc(Cl)cc4)CC3)cc2)cc1S(=O)(=O)C(F)(F)F` [AZD4320] + CN(C)CCCOc1ccc(-c2ccc3ncc4c(c3c2)n(C2CCOCC2)c(=O)n4C)cn1 [AZD0156] (first compound max 1 µM, 7x7, partner max 1 µM), the “combination Emax” value in [1] was 0.0949; in assay [2] it was 0.245; in [3], 0.681; in assay [4] it was 0.174; in [5], 0.188; in [6] it was 0.174. Moreover, the “combination Emax” value in assay [7] is 1; in the assay on RD (Rhabdomyosarcoma), 0.632; in the assay on SJSA-1 (Osteosarcoma), 0.283; in [8], 0.46; in the assay on G-361 (Melanoma) it was 0.288; in assay [9], 0.209. Further, the “combination Emax” value in assay [10] was 0.474; with M059J (Glioblastoma), 0.366; in assay [11], 0.474; in assay [12], 0.293; in assay [13], 0.136; in assay [14] it was 0.512. Also, the “combination Emax” value came out at 0.158 in [15] and 0.751 in assay [16].

For `CN(CCO)CC[C@H](CSc1ccccc1)Nc1ccc(S(=O)(=O)NC(=O)c2ccc(N3CCC([C@@H](O)c4ccccc4-c4ccc(Cl)cc4)CC3)cc2)cc1S(=O)(=O)C(F)(F)F` [AZD4320] + C[C@@H]1COCCN1C2=NC(=NC(=C2)C3(CC3)[S@](=N)(=O)C)C4=C5C=CNC5=NC=C4 [AZD6738] (first compound max 1 µM, 7x7, partner max 10 µM), the “combination Emax” value amounted to 0.78 in [1]; 0.367 in assay [2]; 0.739 in [3]; 0.59 in [4]; 0.675 in assay [5]; 0.727 in [6]. In addition, the “combination Emax” value in [7] came out at 1; in the assay on RD (Rhabdomyosarcoma) it was 0.781; in the assay with SJSA-1 (Osteosarcoma), 0.557; in [8] it was 0.761; with G-361 (Melanoma) it was 0.629; in [9], 0.675. Moreover, the “combination Emax” value in [10] worked out at 0.783; in the assay with M059J (Glioblastoma) it was 0.774; in [11], 0.696; in assay [12], 0.385; in assay [13], 0.49; in assay [14] it was 1. For the same compound, the “combination Emax” value in assay [15] was found to be 0.561; in [16], 0.942.

Regarding `CN(CCO)CC[C@H](CSc1ccccc1)Nc1ccc(S(=O)(=O)NC(=O)c2ccc(N3CCC([C@@H](O)c4ccccc4-c4ccc(Cl)cc4)CC3)cc2)cc1S(=O)(=O)C(F)(F)F` [AZD4320] + C[C@@H](Nc1cc(F)cc(F)c1)c1cc(C(=O)N(C)C)cc2c(=O)cc(N3CCOCC3)oc12 [AZD8186] (first compound max 1 µM, 7x7, partner max 3 µM), the “combination Emax” value in assay [1] came to 0.357; in assay [2], 0.342; in assay [3], 0.792; in assay [4], 0.502; in assay [5], 0.415; in assay [6], 0.329. In addition, the “combination Emax” value in assay [7] turned out to be 1; with RD (Rhabdomyosarcoma), 0.887; with SJSA-1 (Osteosarcoma) it was 0.315; in assay [8], 0.863; in the assay with G-361 (Melanoma) it was 0.332; in assay [9], 0.365. The “combination Emax” value in [10] is 0.728; in the assay with M059J (Glioblastoma), 0.306; in [11] it was 0.688; in [12] it was 0.34; in [13], 0.149; in assay [14] it was 0.99. For the same compound, the “combination Emax” value in assay [15] was determined as 0.305; in assay [16], 0.705.

For `CN(CCO)CC[C@H](CSc1ccccc1)Nc1ccc(S(=O)(=O)NC(=O)c2ccc(N3CCC([C@@H](O)c4ccccc4-c4ccc(Cl)cc4)CC3)cc2)cc1S(=O)(=O)C(F)(F)F` [AZD4320] + Cc1cc2ncnn2cc1Nc1ncc2c(n1)n(C1CCOCC1)c(=O)n2C [AZD7648] (first compound max 1 µM, 7x7, partner max 10 µM), the “combination Emax” value in assay [1] is 0.0273; in assay [2], 0.278; in [3], 0.737; in assay [4], 0.484; in [5], 0.321; in [6], 0.243. The “combination Emax” value was 1 in [7]; 0.61 with RD (Rhabdomyosarcoma); 0.283 with SJSA-1 (Osteosarcoma); 0.688 in [8]; 0.205 in the assay on G-361 (Melanoma); 0.305 in assay [9]. In addition, the “combination Emax” value is 0.558 in assay [10]; 0.386 in the assay on M059J (Glioblastoma); 0.541 in assay [11]; 0.233 in assay [12]; 0.154 in assay [13]; 0.797 in assay [14]. Besides, the “combination Emax” value is 0.106 in assay [15] and 0.872 in assay [16].
